In PMC5908160, “Inhibition of sperm motility in male macaques with EP055, a potential non-hormonal male contraceptive” (PLoS ONE, 2018):

Assay: Blood constituents and health monitoring in rhesus males after EP055 infusion
Type: in vivo, Macaca mulatta
Design: Hematocrit: unit not given here
Settings: post low dose 75–80 mg/kg
Text: The physical and behavioral condition of animals are monitored daily at ONPRC. Additional monitoring by Division of Comparative Medicine and/or clinical veterinary staff was provided immediately, at 1 hr, 2 hr and 6 hr post-administration of the contraceptive compound, and daily for up to 30 days after the final drug injection. Criteria used to assess animal health and welfare include: stool and urine quality and quantity, appetite and attitude (bright and alert, quiet, lethargic), pain (not eating, not moving, hunched over, lethargy/disinterest), vomiting, diarrhea, nausea, dehydration (unkempt coat, lack of urine production), and signs of wounds of injury. In addition, the ONPRC Standardized Pain Scoring system is used post-surgically to monitor an animal’s progress and improvement over time. Major criteria include animal appearance, posture, activity (including stool and urine production), vocalization and atypical behaviors.
Prior to infusion of EP055, each male was sedated with ketamine by the surgical staff at ONPRC and transported to the operating room. After positioning in dorsal recumbency, the male was intubated and placed under inhalant (isoflurane) anesthesia. Bilateral intravenous catheters were placed in cephalic veins, one for infusion and one for back-up. A percutaneous arterial line was placed in the right femoral artery for direct blood pressure measurement. Invasive blood pressure, heart rate, SpO2, and respirations were monitored by the surgical staff throughout the procedure. Initially, the low doses of EP055 in 5% DMSO-PBS 7.6 was infused by i.v. at 75-80 mg/kg, using a Medfusion 3500 pump (Smiths Medical, St. Paul, MN), and was started at a low flow rate ([…]). In 3 of 4 males, a 5-10% increase in blood pressure and heart rate were noted within the first 2-3 minutes of infusion of EP055. In these cases, the infusion was temporarily suspended until these parameters subsequently declined to normal. The infusion rate was then doubled to 1.2 ml/kg/min after 5-10 minutes and the final volume of EP055 infusate was administered. Blood pressure and heart rate remained normal throughout the rest of the infusion interval. The total volume of EP055 infusate ranged from 72 ml – 136 ml, depending upon the weight of the animal, and the duration of infusion was 10-13 minutes. Following completion of the infusion, all animals recovered normally. Animals were monitored by clinical veterinary staff immediately, at 1 hr, 2 hr and 6-8 hr post-infusion, and daily for up to 30 days after the final infusion of EP055. […] Two weeks after the infusion of the low dose and collection of the next set of baseline semen samples, males were infused with the high dose of EP055 (125-130 mg/kg) as described above, and monitored similarly.
Blood was collected from the brachial vein at the time of each semen collection, and used to determine complete blood counts and serum biochemistry tests (including electrolytes, glucose, lipids, proteins, enzymes and metabolic by-products) as performed in the Clinical Pathology Laboratory in the Division of Comparative Medicine at ONPRC.

COC(=O)NNc1nc(Nc2ccc(NC(C)=O)c(O)c2)nc(SCC(=O)O)n1 [EP055]
GGT (6-8 hrs): 70.5 ± 2.1- U/l | GLUC (6-8 hrs): 89.0 ± 6.7 mg/dL | Hematocrit (6-8 hrs): 44.3 ± 1.0 | Hemoglobin (6-8 hrs): 14.4 ± 0.3 g/dL | Leukocytes (6-8 hrs): 12.8 ± 2.7 x 10^3/mm^3 | Lymphocytes (6-8 hrs): 18.8 ± 1.9% | MCH (6-8 hrs): 24.5 ± 0.3 pg/cell | MCHC (6-8 hrs): 32.6 ± 0.1 g/dL | MCV (6-8 hrs): 75.1 ± 1.2 fl/cell | Magnesium (6-8 hrs): 1.8 ± 0.0 mg/dL | Monocytes (6-8 hrs): 4.9 ± 0.1% | Neutrophils (6-8 hrs): 9.5 ± 2.0 x 10^3/mm^3 | Phosphorus (6-8 hrs): 5.3 ± 0.3 mg/dL | Platelets (6-8 hrs): 268.5 ± 38.7 x 10^6 | Potassium (6-8 hrs): 3.9 ± 0.2 mEq/l | Sodium (6-8 hrs): 149.0 ± 0.9 mEq/l | Total Bilirubin (6-8 hrs): 0.2 ± 0.1 mg/dL | Total Protein (6-8 hrs): 7.5 ± 0.0 g/dL | Triglycerides (6-8 hrs): 63.8 ± 5.7 mg/dL | ALT (28-30 hrs): 54.3 ± 3.8 U/l | AST (28-30 hrs): 51.0 ± 6.6 U/l | Albumin (28-30 hrs): 4.8 ± 0.1 g/dL | Alkaline Phosphatase (28-30 hrs): 128.5 ± 12.5 U/l | BUN (28-30 hrs): 15.0 ± 1.5 mg/dL | Basophils (28-30 hrs): 0.6 ± 0.1% | CREAT (28-30 hrs): 1.0 ± 0.0 mg/dL | Chloride (28-30 hrs): 110.3 ± 0.9 mEq/l | Cholesterol (28-30 hrs): 149.5 ± 19.5 mg/dL | Eosinophils (28-30 hrs): 1.4 ± 0.1% | Erythrocytes (28-30 hrs): 5.9 ± 0.3 x 10^6/mm^3 | GGT (28-30 hrs): 72.5 ± 3.9 U/l | GLUC (28-30 hrs): 90.0 ± 10.3 mg/dL | Hematocrit (28-30 hrs): 43.9 ± 1.9 | Hemoglobin (28-30 hrs): 14.4 ± 0.7 g/dL | Leukocytes (28-30 hrs): 11.8 ± 3.1 x 10^3/mm^3 | Lymphocytes (28-30 hrs): 31.1 ± 4.8% | MCH (28-30 hrs): 24.4 ± 0.2 pg/cell | MCHC (28-30 hrs): 32.7 ± 0.3 g/dL | MCV (28-30 hrs): 74.7 ± 1.0 fl/cell | Magnesium (28-30 hrs): 1.7 ± 0.1 mg/dL | Monocytes (28-30 hrs): 5.7 ± 0.3% | Neutrophils (28-30 hrs): 7.2 ± 2.0 x 10^3/mm^3 | Phosphorus (28-30 hrs): 4.0 ± 0.5 mg/dL | Platelets (28-30 hrs): 185.8 ± 35.8 x 10^6 | Potassium (28-30 hrs): 4.2 ± 0.2 mEq/l | Sodium (28-30 hrs): 149.0 ± 1.1 mEq/l | Total Bilirubin (28-30 hrs): 0.2 ± 0.0 mg/dL | Total Protein (28-30 hrs): 7.7 ± 0.2 g/dL | Triglycerides (28-30 hrs): 75.3 ± 28.9 mg/dL | ALT (78 hrs): 60.3 ± 12.2 U/l | AST (78 hrs): 73.8 ± 33.6 U/l | Albumin (78 hrs): 4.7 ± 0.1 g/dL | Alkaline Phosphatase (78 hrs): 125.3 ± 16.3 U/l | BUN (78 hrs): 18.8 ± 3.2 mg/dL | Basophils (78 hrs): 0.6 ± 0.1% | CREAT (78 hrs): 1.0 ± 0.0 mg/dL | Chloride (78 hrs): 108.0 ± 0.8 mEq/l | Cholesterol (78 hrs): 144.0 ± 17.0 mg/dL | Eosinophils (78 hrs): 2.0 ± 0.5% | Erythrocytes (78 hrs): 5.5 ± 0.2 x 10^6/mm^3 | GGT (78 hrs): 65.3 ± 2.7 U/l | GLUC (78 hrs): 91.5 ± 7.4 mg/dL | Hematocrit (78 hrs): 40.6 ± 0.8 | Hemoglobin (78 hrs): 13.3 ± 0.3 g/dL | Leukocytes (78 hrs): 11.2 ± 3.3 x 10^3/mm^3 | Lymphocytes (78 hrs): 33.7 ± 5.0% | MCH (78 hrs): 24.5 ± 0.3 pg/cell | MCHC (78 hrs): 32.8 ± 0.1 g/dL | MCV (78 hrs): 74.6 ± 1.2 fl/cell | Magnesium (78 hrs): 1.8 ± 0.0 mg/dL | Monocytes (78 hrs): 5.5 ± 0.5% | Neutrophils (78 hrs): 6.6 ± 2.2 x 10^3/mm^3 | Phosphorus (78 hrs): 4.1 ± 0.6 mg/dL | Platelets (78 hrs): 270.8 ± 25.8 x 10^6 | Potassium (78 hrs): 4.0 ± 0.1 mEq/l | Sodium (78 hrs): 147.0 ± 1.2 mEq/l | Total Bilirubin (78 hrs): 0.2 ± 0.0 mg/dL | Total Protein (78 hrs): 7.6 ± 0.1 g/dL | Triglycerides (78 hrs): 57.3 ± 14.1 mg/dL | ALT (Recovery): 31.7 ± 2.3 U/l | AST (Recovery): 42.3 ± 2.6 U/l | Albumin (Recovery): 4.3 ± 0.1 g/dL | Alkaline Phosphatase (Recovery): 79.0 ± 2.3 U/l | BUN (Recovery): 16.5 ± 1.9 mg/dL | Basophils (Recovery): 0.5 ± 0.1% | CREAT (Recovery): 0.8 ± 0.0 mg/dL | Chloride (Recovery): 107.0 ± 0.0 mEq/l | Cholesterol (Recovery): 138.7 ± 19.3 mg/dL | Eosinophils (Recovery): 1.4 ± 0.3% | Erythrocytes (Recovery): 5.7 ± 0.2- x 10^6/mm^3 | GGT (Recovery): 62.3 ± 1.8 U/l | GLUC (Recovery): 58.3 ± 4.5 mg/dL | Hematocrit (Recovery): 42.4 ± 1.1 | Hemoglobin (Recovery): 13.8 ± 0.4 g/dL | Leukocytes (Recovery): 5.9 ± 1.0 x 10^3/mm^3 | Lymphocytes (Recovery): 44.8 ± 5.4% | MCH (Recovery): 24.1 ± 0.4 pg/cell | MCHC (Recovery): 32.5 ± 0.2 g/dL | MCV (Recovery): 74.1 ± 0.9 fl/cell | Magnesium (Recovery): 1.9 ± 0.1 mg/dL | Monocytes (Recovery): 6.4 ± 0.2% | Neutrophils (Recovery): 4.5 ± 1.7 x 10^3/mm^3 | Phosphorus (Recovery): 5.1 ± 0.2 mg/dL | Platelets (Recovery): 295.7 ± 11.8 x 10^6 | Potassium (Recovery): 4.0 ± 0.1 mEq/l | Sodium (Recovery): 146.7 ± 0.3 mEq/l | Total Bilirubin (Recovery): 0.2 ± 0.0 mg/dL | Total Protein (Recovery): 7.1 ± 0.1 g/dL | Triglycerides (Recovery): 38.0 ± 6.9 mg/dL
